# How the values were obtained:
# lymph cancer Ramos = assay: anticancer activity in vitro (SRB, MTT), lymph cancer Ramos; assay type: cell-based; settings: Homo sapiens, action time about 72 h
# Protocol: (§1) Antitumor activity tests in vitro and in vivo are carried out to the parital compounds prepared from the above examples. Wherein the method of SRB, MTT is used in vitro, and the action time is about 72 h. Inhibitory effects of the compounds on the growth of mouse Conlon26 cancer are shown in Table 2, inhibitory effects of the compounds on the growth of mouse S180 sarcoma are shown in Table 3.
# colon cancer HT-29 = assay: anticancer activity in vitro (SRB, MTT), colon cancer HT-29; assay type: cell-based; settings: Homo sapiens, action time about 72 h
# Protocol: as §1
# [1] = test system: non-small cell lung cancer; assay: anticancer activity in vitro (SRB, MTT), non-small cell lung cancer; assay type: cell-based; settings: action time about 72 h
# Protocol: as §1
# [2] = test system: human liver cancer Bel-7402; assay: anticancer activity in vitro (SRB, MTT), human liver cancer Bel-7402; assay type: cell-based; settings: action time about 72 h
# Protocol: as §1
# mouse Colon26 cancer = assay: inhibitory effects on the growth of mouse Colon26 cancer in vivo; settings: for End body weight / Inhibition rate / Tumor removed body weight / Tumor weight / Initial body weight: Colon26 mice; for Initial body weight: baseline
# Protocol: as §1
# mouse S180 sarcoma = assay: inhibitory effects on the growth of mouse S180 sarcoma in vivo; settings: for End body weight / Inhibition rate / Tumor removed body weight / Tumor weight / Initial body weight: S180 mice; for Initial body weight: baseline
# Protocol: as §1
# [3] = test system: four different cancer cells; assay: antitumor activity in vitro, summary over the four cancer cells of Table 1; assay type: cell-based; settings: summary of Table 1
# Protocol: as §1
# Compared with compound I, compound XX has better antitumor effects.
Compound,IC50 (lymph cancer Ramos) [nM],IC50 (colon cancer HT-29) [nM],IC50 [1] [nM],IC50 [2] [nM],antitumor activity to four different cancer cells (in words) [3],End body weight (mouse Colon26 cancer; 100 mg/kg p.o.) [g],Inhibition rate (mouse Colon26 cancer; 100 mg/kg p.o.) [%],Tumor removed body weight (mouse Colon26 cancer; 100 mg/kg p.o.) [g],Tumor weight (mouse Colon26 cancer; 100 mg/kg p.o.) [g],Initial body weight (mouse Colon26 cancer; 100 mg/kg p.o.) [g],End body weight (mouse Colon26 cancer; 150 mg/kg p.o.) [g],Inhibition rate (mouse Colon26 cancer; 150 mg/kg p.o.) [%],Tumor removed body weight (mouse Colon26 cancer; 150 mg/kg p.o.) [g],Tumor weight (mouse Colon26 cancer; 150 mg/kg p.o.) [g],Initial body weight (mouse Colon26 cancer; 150 mg/kg p.o.) [g],End body weight (mouse S180 sarcoma; 100 mg/kg p.o.) [g],Inhibition rate (mouse S180 sarcoma; 100 mg/kg p.o.) [%],Tumor removed body weight (mouse S180 sarcoma; 100 mg/kg p.o.) [g],Tumor weight (mouse S180 sarcoma; 100 mg/kg p.o.) [g],Initial body weight (mouse S180 sarcoma; 100 mg/kg p.o.) [g],further results
"COc1cccc2c1C(=O)c1c(O)c3c(c(O)c1C2=O)C[C@@](O)(C(=O)CO)C[C@@H]3O[C@H]1C[C@H](N)[C@H](O)[C@H](C)O1 [ADR, adriamycin, reference compound]",190,380,50,20,–,–,–,–,–,–,–,–,–,–,–,–,–,–,–,–,–
"O=P1(N(CCCl)CCCl)NCCCO1 (stereo not shown) [CTX, cyclophosphamide, reference compound]",–,–,–,–,–,–,–,–,–,–,–,–,–,–,–,–,–,–,–,–,End body weight (mouse Colon26 cancer; 30 mg/kg i.p.): 20.33 g; Inhibition rate (mouse Colon26 cancer; 30 mg/kg i.p.): 78.14%; Tumor removed body weight (mouse Colon26 cancer; 30 mg/kg i.p.): 19.93 g; Tumor weight (mouse Colon26 cancer; 30 mg/kg i.p.): 0.40 g; Initial body weight (mouse Colon26 cancer; 30 mg/kg i.p.): 20.03 g; End body weight (mouse S180 sarcoma; 30 mg/kg i.p.): 20.31 g; Inhibition rate (mouse S180 sarcoma; 30 mg/kg i.p.): 79.82%; Tumor removed body weight (mouse S180 sarcoma; 30 mg/kg i.p.): 19.85 g; Tumor weight (mouse S180 sarcoma; 30 mg/kg i.p.): 0.46 g; Initial body weight (mouse S180 sarcoma; 30 mg/kg i.p.): 19.65 g
c1cnc2ccc(Nc3nc(N4CCCC4)c4nc[nH]c4n3)cc2c1 [Compound IV],670,380,2280,670,the best,19.32,33.31,18.10,1.22,20.09,18.41,54.45,17.57,0.83,20.10,20.77,31.95,19.22,1.55,18.99,End body weight (mouse S180 sarcoma; 200 mg/kg p.o.): 19.12 g; Inhibition rate (mouse S180 sarcoma; 200 mg/kg p.o.): 55.37%; Tumor removed body weight (mouse S180 sarcoma; 200 mg/kg p.o.): 18.10 g; Tumor weight (mouse S180 sarcoma; 200 mg/kg p.o.): 1.02 g; Initial body weight (mouse S180 sarcoma; 200 mg/kg p.o.): 19.49 g
C=CCNc1nc(Nc2ccc3ncccc3c2)nc2[nH]cnc12 [Compound I],5780,8610,3610,1580,higher antitumor activity,18.15,62.25,17.46,0.69,19.47,17.96,76.52,17.26,0.43,21.10,18.32,68.93,17.61,0.71,19.74,inhibitory effects on mouse Colon26 cancer (in words) (mouse Colon26 cancer; 100 mg/kg dosage): better inhibitory effects; inhibitory effects on mouse S180 sarcoma (in words) (mouse S180 sarcoma; 100 mg/kg dosage): better inhibitory effects; End body weight (mouse S180 sarcoma; 200 mg/kg p.o.): 16.04 g; Inhibition rate (mouse S180 sarcoma; 200 mg/kg p.o.): 70.21%; Tumor removed body weight (mouse S180 sarcoma; 200 mg/kg p.o.): 15.36 g; Tumor weight (mouse S180 sarcoma; 200 mg/kg p.o.): 0.68 g; Initial body weight (mouse S180 sarcoma; 200 mg/kg p.o.): 18.97 g
CNc1nc(Nc2ccc3ncccc3c2)nc2[nH]cnc12 [Compound VII],1270,4010,6650,230,higher antitumor activity,–,–,–,–,–,–,–,–,–,–,–,–,–,–,–,–
CN1CCN(c2nc(Nc3ccc4ncccc4c3)nc3[nH]cnc23)CC1 [Compound XII],–,–,–,–,–,19.16,35.18,17.98,1.19,19.06,18.28,50.16,17.36,0.91,19.16,22.58,28.19,20.94,1.63,19.22,End body weight (mouse S180 sarcoma; 200 mg/kg p.o.): 21.35 g; Inhibition rate (mouse S180 sarcoma; 200 mg/kg p.o.): 46.96%; Tumor removed body weight (mouse S180 sarcoma; 200 mg/kg p.o.): 20.14 g; Tumor weight (mouse S180 sarcoma; 200 mg/kg p.o.): 1.21 g; Initial body weight (mouse S180 sarcoma; 200 mg/kg p.o.): 19.46 g

# Second part, led by results:
IC50 (lymph cancer Ramos) [nM],IC50 (colon cancer HT-29) [nM],IC50 [1] [nM],IC50 [2] [nM],Compound,antitumor activity to four different cancer cells (in words) [3],End body weight (mouse Colon26 cancer; 100 mg/kg p.o.) [g],Inhibition rate (mouse Colon26 cancer; 100 mg/kg p.o.) [%],Tumor removed body weight (mouse Colon26 cancer; 100 mg/kg p.o.) [g],Tumor weight (mouse Colon26 cancer; 100 mg/kg p.o.) [g],Initial body weight (mouse Colon26 cancer; 100 mg/kg p.o.) [g],End body weight (mouse Colon26 cancer; 150 mg/kg p.o.) [g],Inhibition rate (mouse Colon26 cancer; 150 mg/kg p.o.) [%],Tumor removed body weight (mouse Colon26 cancer; 150 mg/kg p.o.) [g],Tumor weight (mouse Colon26 cancer; 150 mg/kg p.o.) [g],Initial body weight (mouse Colon26 cancer; 150 mg/kg p.o.) [g],End body weight (mouse S180 sarcoma; 100 mg/kg p.o.) [g],Inhibition rate (mouse S180 sarcoma; 100 mg/kg p.o.) [%],Tumor removed body weight (mouse S180 sarcoma; 100 mg/kg p.o.) [g],Tumor weight (mouse S180 sarcoma; 100 mg/kg p.o.) [g],Initial body weight (mouse S180 sarcoma; 100 mg/kg p.o.) [g],further results
3010,1940,1710,3460,C=CCN(CC=C)c1nc(Nc2ccc3ncccc3c2)nc2[nH]cnc12 [Compound XIII],higher antitumor activity,–,–,–,–,–,–,–,–,–,–,–,–,–,–,–,–
2930,2220,1330,4620,c1cnc2ccc(Nc3nc(N4CCCCC4)c4nc[nH]c4n3)cc2c1 [Compound XIV],higher antitumor activity,–,–,–,–,–,–,–,–,–,–,–,–,–,–,–,–
2870,4270,3360,5460,CCN1CCN(c2nc(Nc3ccc4ncccc4c3)nc3[nH]cnc23)CC1 [Compound XV],higher antitumor activity,–,–,–,–,–,–,–,–,–,–,–,–,–,–,–,–

# Reference: US8580763B2, “2, 6-dinitrogen-containing substituted purine derivatives, the preparation and uses thereof” (Zhanggui Wu, priority 2007, dated 2013)
